Measurements reported in patent US5061794A, “Cephalosporin derivatives, and antibacterial agents” (priority 1986, dated 1991).
Where two headings read alike, the source gives them in different places.

Columns and labels:
[1] = test system: Ps. aeruginosa IF03445; assay: in vitro antibacterial activity, agar plate dilution method (MIC); assay type: cell-based, Pseudomonas aeruginosa; details: Pseudomonas aeruginosa, IF03445, 16 h, read-out: Minimum Inhibitory Concentration (MIC), Ps. aeruginosa IF03445; 10^6 CFU/ml
Outline: (§1)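 Inoculum 10^6 CFU/ml; medium Mueller Hinton agar with graded antibiotic; 37° C./16 h; endpoint MIC (μg/ml).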

[2] = test system: Ps. aeruginosa AK 109; assay: as above; assay type: cell-based, Pseudomonas aeruginosa; details: Pseudomonas aeruginosa, AK109, 16 h, 10^6 CFU/ml
Outline: as §1

[3] = test system: Ps. aeruginosa AKR17; assay: as above; assay type: cell-based, Pseudomonas aeruginosa; details: Pseudomonas aeruginosa, read-out: Minimum Inhibitory Concentration (MIC)
Outline: as §1

[4] = test system: A. calcoaceticus No. 4; assay: as above; assay type: cell-based, Acinetobacter calcoaceticus; details: Acinetobacter calcoaceticus, NO.4, 16 h, 10^6 CFU/ml
Outline: as §1

[5] = test system: Ps. cepacia 23; assay: as above; assay type: cell-based, Pseudomonas cepacia; details: Burkholderia cepacia, 16 h; Ps. cepacia 23; 10^6 CFU/ml; read-out: Minimum Inhibitory Concentration (MIC)
Outline: as §1

[6] = test system: E. coli CSH(RE45); assay: microbe, parasite or virus in culture; assay type: cell-based; details: Escherichia coli, 16 h, read-out: Minimum Inhibitory Concentration (MIC), *E. coli CSH(RE45), lactamase-producing strain; 10^6 CFU/ml
Outline: as §1

[7] = test system: E. coli CSH2 (RK1); assay: microbe, parasite or virus in culture; assay type: cell-based; details: Escherichia coli, 16 h, read-out: Minimum Inhibitory Concentration (MIC), *E. coli CSH2 (RK1), lactamase-producing strain; 10^6 CFU/ml
Outline: as §1

[8] = test system: P. vulgaris No. 33; assay: in vitro antibacterial activity, agar plate dilution method (MIC); assay type: cell-based; details: Proteus vulgaris, NO.33, 16 h, read-out: Minimum Inhibitory Concentration (MIC), *P. vulgaris No. 33, lactamase-producing strain; 10^6 CFU/ml
Outline: as §1

[9] = test system: S. marcescens No. 16-2; assay: as above; assay type: cell-based; details: Serratia marcescens, NO.162, 16 h
Outline: as §1

[10] = test system: K. pneumoniae PCI-602; assay: as above; assay type: cell-based; details: Klebsiella pneumoniae, PCI602, 16 h, 10^6 CFU/ml
Outline: as §1

[11] = test system: K. pneumoniae No. 42; assay: as above; assay type: cell-based; details: Klebsiella pneumoniae, NO.42, 16 h, read-out: Minimum Inhibitory Concentration (MIC), *K. pneumoniae No. 42, lactamase-producing strain; 10^6 CFU/ml
Outline: as §1

[12] = test system: M. morganii GN5407; assay: as above; assay type: cell-based; details: Morganella morganii, GN5407, 16 h, read-out: Minimum Inhibitory Concentration (MIC), *M. morganii GN5407, lactamase-producing strain; 10^6 CFU/ml
Outline: as §1

[13] = test system: S. marcescens IAM 1184; assay: as above; assay type: cell-based; details: Serratia marcescens, IAM1184, 16 h, read-out: Minimum Inhibitory Concentration (MIC)
Outline: as §1

[14] = test system: E. coli NIHJ JC2; assay: as above; assay type: cell-based; details: Escherichia coli, NIHJJC2, 16 h, read-out: Minimum Inhibitory Concentration (MIC), E. coli NIHJ JC2, 10^6 CFU/ml, 37° C.
Outline: as §1

[15] = test system: E. cloacae Nek 39; assay: as above; assay type: cell-based; details: Enterobacter cloacae, NEK39, 16 h, read-out: Minimum Inhibitory Concentration (MIC), *E. cloacae Nek 39, lactamase-producing strain; 10^6 CFU/ml
Outline: as §1

[16] = test system: S. aureus 209P NIHJ-JC1; assay: as above; assay type: cell-based; details: Staphylococcus aureus, 16 h, 10^6 CFU/ml, 37° C., 16 hours
Outline: as §1

[17] = test system: P. vulgaris HX-19; assay: as above; assay type: cell-based; details: Proteus vulgaris, HX19, 16 h, P. vulgaris HX-19; 10^6 CFU/ml; read-out: Minimum Inhibitory Concentration (MIC)
Outline: as §1

[18] = test system: K. oxytoca GN10650; assay: as above; assay type: cell-based; details: Klebsiella oxytoca, GN10650, 16 h, read-out: Minimum Inhibitory Concentration (MIC), *K. oxytoca GN10650, lactamase-producing strain; 10^6 CFU/ml
Outline: as §1

[19] = test system: E. coli GN5482; assay: as above; assay type: cell-based; details: Escherichia coli, GN5482, 16 h, read-out: Minimum Inhibitory Concentration (MIC)
Outline: as §1

[20] = test system: E. cloacae 963; assay: as above; assay type: cell-based; details: 10^6 CFU/ml
Outline: as §1

[21] = read-out: Minimum Inhibitory Concentration (MIC), Ps. aeruginosa AK 109
[22] = read-out: Minimum Inhibitory Concentration (MIC), A. calcoaceticus No. 4
[23] = S. marcescens IAM 1184, 10^6 CFU/ml
[24] = Enterobacter cloacae, 963, 16 h, read-out: Minimum Inhibitory Concentration (MIC), E. cloacae 963
[25] = 16 h, Ps. aeruginosa AKR17, 10^6 CFU/ml
[26] = read-out: Minimum Inhibitory Concentration (MIC), *S. marcescens No. 16-2, lactamase-producing strain, 10^6 CFU/ml
[27] = read-out: Minimum Inhibitory Concentration (MIC), K. pneumoniae PCI-602
[28] = read-out: Minimum Inhibitory Concentration (MIC), S. aureus 209P NIHJ-JC1

Compound | MIC [1] [µg/mL] | MIC [2, 21] [µg/mL] | MIC [4, 22] [µg/mL] | MIC [5] [µg/mL] | MIC [6] [µg/mL] | MIC [7] [µg/mL] | MIC [8] [µg/mL] | MIC [11] [µg/mL] | MIC [12] [µg/mL] | MIC [13, 23] [µg/mL] | MIC [14] [µg/mL] | MIC [15] [µg/mL] | MIC [17] [µg/mL] | MIC [18] [µg/mL] | MIC [19] [µg/mL] | MIC [20, 24] [µg/mL] | MIC [3, 25] [µg/mL] | MIC [9, 26] [µg/mL] | MIC [10, 27] [µg/mL] | MIC [16, 28] [µg/mL] | also measured
Nc1nc(C(=NOC2(C(=O)O)CC2)C(=O)NC2C(=O)N3C(C(=O)O)=C(CSc4nc(-c5ccc(O)c(O)c5)c(CC(=O)O)s4)CSC23)cs1 (stereo not drawn) [Example 60 (I), trisodium 7β-[2-(2-aminothiazol-4-yl)-2-(1-carboxylate-1-cyclopropoxyimino)acetamido]-3-[4-(3,4-dihydroxyphenyl)-5-carboxylatemethylthiazol-2-yl]thiomethyl-3-cephem-4-carboxylate] | 1.56 | 1.56 | 0.78 | 0.0125 | 3.12 | 0.05 | 0.1 | 0.39 | 0.39 | 0.2 | 1.56 | 0.39 | 0.025 | 0.39 | 3.12 | 0.78 | – | – | – | – | MIC ([3]; AKR17, 16 h): 3.12 µg/mL; MIC ([9]; read-out: Minimum Inhibitory Concentration (MIC)): 3.12 µg/mL; MIC ([10]; K. pneumoniae PCI-602, read-out: Minimum Inhibitory Concentration (MIC)): 0.025 µg/mL; MIC ([16]; S. aureus 209P NIHJ-JC1, read-out: Minimum Inhibitory Concentration (MIC)): 50 µg/mL
C#CCON=C(C(=O)NC1C(=O)N2C(C(=O)O)=C(CSc3nc(C(=O)O)c(-c4ccc(O)c(O)c4)s3)CSC12)c1csc(N)n1 (stereo not drawn) [Ex. 56, disodium 78-[2-(2-aminothiazol-4-yl)-2-proparqyloxyiminoacetamido]-3-[4-carboxylate-5-(3,4-dihydroxyphenyl)thiazol-2-yl]thiomethyl-3-cephem-4-carboxylate] | 3.12 | 6.25 | – | < 0.006 | 0.025 | 0.0125 | 0.05 | 0.1 | 0.05 | 0.05 | 0.78 | 0.78 | < 0.006 | 12.5 | 3.12 | – | 100 | 6.25 | < 0.006 | 6.25 | MIC ([4]; A. calcoaceticus No. 4, read-out: Minimum Inhibitory Concentration (MIC)): 0.2 µg/mL; MIC ([20]; Enterobacter cloacae, 16 h, E. cloacae 963, read-out: Minimum Inhibitory Concentration (MIC)): 0.2 µg/mL
C#CCO/N=C(\C(=O)N[C@@H]1C(=O)N2C(C(=O)O)=C(CSc3nnc(-c4ccc(O)c(O)c4)o3)CS[C@H]12)c1csc(N)n1 [compound 9, sodium 7β-[2-(2-aminothiazol-4-yl)-2-(2-propynyloxyimino)acetamido]-3-[5-(3,4-dihydroxyphenyl)-1,3,4-oxadiazol-2-yl]thiomethyl-3-cephem-4carboxylate] | 1.56 | – | 0.1 | 0.05 | 0.0125 | 0.0125 | 0.025 | 0.025 | 0.0125 | – | 0.1 | 0.1 | < 0.006 | 6.25 | 0.39 | 0.0125 | > 100 | 6.25 | 0.0125 | 0.78 | MIC ([2]; Ps. aeruginosa AK 109, read-out: Minimum Inhibitory Concentration (MIC)): 0.2 µg/mL; MIC [13]: 0.0125 µg/mL
